From ChEMBL document CHEMBL1156251, “Structure--activity relationships of polymyxin antibiotics” (J Med Chem, 2010)
Values after ≈ are worked out from the molar mass of the structure shown. Where a SMILES comes first, the peptide text is derived from it. Bridges are numbered along the chain shown (N, C = ends). [ ]: non-standard residue; d: D form. The star is where a group is joined. Octanoyl = CCCCCCCC(=O)*; Dab = NCC[C@H](N)C(=O)O; Abu = CC[C@H](N)C(=O)O

Experiments:
Escherichia coli [1] = test: Antimicrobial activity against Escherichia coli at 10 ug/mL; format: functional
Escherichia coli [2] = test: Antimicrobial activity against Escherichia coli; format: functional
Pseudomonas aeruginosa = test: Antimicrobial activity against Pseudomonas aeruginosa; format: functional, organism-based
Klebsiella pneumoniae = test: Antimicrobial activity against Klebsiella pneumoniae; format: functional

Row | MIC (Escherichia coli [2]) [µg/mL] | MIC (Pseudomonas aeruginosa) [µg/mL] | MIC (Klebsiella pneumoniae) [µg/mL] | Compound | GI (Escherichia coli [1]) [square millimeter]
1 |  |  |  | CCCCCCCC(=O)N[C@H](C(=O)N[C@@H](CCN)C(=O)N[C@H]1CCNC(=O)[C@H]([C@@H](C)O)NC(=O)[C@H](CCN)NC(=O)[C@H](CC)NC(=O)[C@H](CC(C)C)NC(=O)[C@@H](Cc2ccccc2)NC(=O)[C@H](CCN)NC1=O)[C@@H](C)O | 60
2 | 0.175 (≈ 0.129 µM) | 0.073 (≈ 0.054 µM) | 2.2 (≈ 1.63 µM) | CCCCCCCC(=O)N[C@@H](CCN)C(=O)N[C@H](C(=O)N[C@@H](CCN)C(=O)N[C@H]1CCNC(=O)[C@H]([C@@H](C)O)NC(=O)[C@H](CCNC(=O)[C@@H](N)Cc2ccc(O)cc2)NC(=O)[C@H](CCN)NC(=O)[C@H](CC(C)C)NC(=O)[C@@H](Cc2ccccc2)NC(=O)[C@H](CCN)NC1=O)[C@@H](C)O | 
3 |  |  |  | CCCCCCCC(=O)N[C@H](C(=O)N[C@@H](CCC(N)=O)C(=O)N[C@H]1CCNC(=O)[C@H]([C@@H](C)O)NC(=O)[C@H](CCN)NC(=O)[C@H](CCN)NC(=O)[C@H](CC(C)C)NC(=O)[C@@H](Cc2ccccc2)NC(=O)[C@H](CCN)NC1=O)[C@@H](C)O | 10
4 | 0.537 (≈ 0.436 µM) | 0.456 (≈ 0.37 µM) | 16 (≈ 13 µM) | CCCCCCCC(=O)N[C@@H](CCN)C(=O)N[C@H](C(=O)N[C@@H](CCN)C(=O)N[C@H]1CCNC(=O)[C@H]([C@@H](C)O)NC(=O)[C@H](CCNC(C)C)NC(=O)[C@H](CCN)NC(=O)[C@H](CC(C)C)NC(=O)[C@@H](Cc2ccccc2)NC(=O)[C@H](CCN)NC1=O)[C@@H](C)O [DIMETHYL DAB9 POLYMYXIN B] | 
5 |  |  |  | CCCCCCCC(=O)N[C@H](C(=O)N[C@@H](CC)C(=O)N[C@H]1CCNC(=O)[C@H](CC(C)C)NC(=O)[C@H](CCN)NC(=O)[C@H](CCN)NC(=O)[C@H](CC(C)C)NC(=O)[C@@H](Cc2ccccc2)NC(=O)[C@H](CCN)NC1=O)[C@@H](C)O (Octanoyl-T[Abu][Dab][Dab][dF]L[Dab][Dab]L; lactam 3-C) | 50
6 |  |  |  | CCCCCCCCCC(=O)N[C@H](C(=O)N[C@H](CO)C(=O)N[C@H]1CCNC(=O)[C@H]([C@@H](C)O)NC(=O)[C@H](CCN)NC(=O)[C@H](CCN)NC(=O)[C@H](CC(C)C)NC(=O)[C@@H](Cc2ccccc2)NC(=O)[C@H](CCN)NC1=O)[C@@H](C)O | 130
7 | 0.8 (≈ 0.675 µM) | 8 (≈ 6.75 µM) | 62 (≈ 52.3 µM) | CC(C)C[C@@H]1NC(=O)[C@@H](Cc2ccccc2)NC(=O)[C@H](CCN)NC(=O)[C@@H](NC(=O)[C@H](CCN)NC(=O)[C@H](NC(=O)OCC2c3ccccc3-c3ccccc32)[C@@H](C)O)CCNC(=O)[C@@H]([C@@H](C)O)NC(=O)[C@H](CCN)NC(=O)[C@H](CCN)NC1=O | 
8 |  |  |  | CCCCCCCC(=O)N[C@H](C(=O)N[C@@H](CC)C(=O)N[C@H]1CCNC(=O)[C@H]([C@@H](C)O)NC(=O)[C@H](CCN)NC(=O)[C@H](CCN)NC(=O)[C@H](CC(C)C)NC(=O)[C@H](CC(C)C)NC(=O)[C@H](CCN)NC1=O)[C@@H](C)O (Octanoyl-T[Abu][Dab][Dab]LL[Dab][Dab]T; lactam 3-C) | 0
9 | 5 (≈ 3.27 µM) |  | 1.3 (≈ 0.85 µM) | CCC(C)CCCCC(=O)N[C@@H](CCNCc1ccccc1)C(=O)N[C@H](C(=O)N[C@@H](CCN)C(=O)N[C@H]1CCNC(=O)[C@H]([C@@H](C)O)NC(=O)[C@H](CCNCc2ccccc2)NC(=O)[C@H](CCNCc2ccccc2)NC(=O)[C@H](CC(C)C)NC(=O)[C@@H](CC(C)C)NC(=O)[C@H](CCNCc2ccccc2)NC1=O)[C@@H](C)O (stereo partly drawn) | 
10 | ≥ 500 | ≥ 500 | ≥ 500 | CC(C)C[C@@H]1NC(=O)[C@@H](Cc2ccccc2)NC(=O)[C@H](CCN)NC(=O)[C@@H](NC(=O)[C@H](CCN)NC(=O)[C@H](NC(=O)[C@H](C)NC(=O)[C@@H](C)NC(=O)[C@H](C)NC(=O)[C@H](C)NC(=O)[C@@H](C)NC(=O)[C@H](C)N)[C@@H](C)O)CCNC(=O)[C@@H]([C@@H](C)O)NC(=O)[C@H](CCN)NC(=O)[C@H](CCN)NC1=O | 
11 | 1.68 (≈ 1.3 µM) | 2.82 (≈ 2.18 µM) | 11.3 (≈ 8.75 µM) | CCCCCCCC(=O)N[C@@H](CCN)C(=O)N[C@H](C(=O)N[C@@H](CCN)C(=O)N[C@H]1CCNC(=O)[C@H]([C@@H](C)O)NC(=O)[C@H](CCNC(=O)[C@@H](N)CS)NC(=O)[C@H](CCN)NC(=O)[C@H](CC(C)C)NC(=O)[C@@H](Cc2ccccc2)NC(=O)[C@H](CCN)NC1=O)[C@@H](C)O | 

Row | Compound | MIC (Escherichia coli [2]) [µg/mL] | MIC (Pseudomonas aeruginosa) [µg/mL] | MIC (Klebsiella pneumoniae) [µg/mL] | GI (Escherichia coli [1]) [square millimeter]
12 | CCCCCCCC(=O)N[C@@H](CCN)C(=O)N[C@H](C(=O)N[C@@H](CCN)C(=O)N[C@H]1CCNC(=O)[C@H]([C@@H](C)O)NC(=O)[C@H](CCNC(=O)C(Cl)Cl)NC(=O)[C@H](CCN)NC(=O)[C@H](CC(C)C)NC(=O)[C@@H](Cc2ccccc2)NC(=O)[C@H](CCN)NC1=O)[C@@H](C)O [DICHLOROACETYL DAB9 POLYMYXIN B] | 1.54 (≈ 1.18 µM) | 0.995 (≈ 0.765 µM) | 0.82 (≈ 0.631 µM) | 
13 | CCCCCCCC(=O)N[C@@H](CCN)C(=O)N[C@H](C(=O)N[C@@H](CCN)C(=O)N[C@H]1CCNC(=O)[C@H]([C@@H](C)O)NC(=O)[C@H](CCNC(=O)CCl)NC(=O)[C@H](CCN)NC(=O)[C@H](CC(C)C)NC(=O)[C@@H](Cc2ccccc2)NC(=O)[C@H](CCN)NC1=O)[C@@H](C)O [CHLOROACETYL DAB9 POLYMYXIN B] | 0.454 (≈ 0.359 µM) | 0.085 (≈ 0.0671 µM) | 9.5 (≈ 7.5 µM) | 
